Laboratory results taken from article PMC10746280, “Bacterial efflux pump modulators prevent bacterial growth in macrophages and under broth conditions that mimic the host environment” (mBio, 2023).
“And” between values parts separate entries of the source, which are not always exact repeats. Equal entries are not always repeated.

Tests used:
[1] = tested on: S. Typhimurium SL1344 (sifB::gfp) in RAW 264.7 macrophages; experiment: SAFIRE macrophage assay: intracellular bacterial load (GFP signal within macrophages); format: cell-based, Salmonella enterica serotype Typhimurium; conditions: 'Toxic' given instead of a score
Excerpt: (§1) In SAFIRE, we used MATLAB software to count the number of macrophages that remain adherent and retain the red fluorescence of MitoTracker, an indicator of voltage across the mitochondrial inner membrane. MATLAB then calculates the signal from bacteria (green fluorescent protein [GFP]) that overlaps with macrophages, as defined by MitoTracker, to estimate bacterial load. […] For example, we observed that the 6-trifluoropyrimidin-2-yl group on the right-hand side of EPM35 is apparently toxic to macrophages. Non-toxic analogs that reduced bacterial load by at least 60% at 5 µM and 25 µM in SAFIRE, as compared with DMSO, progressed and were evaluated in SAFIRE across eight or more concentrations, ranging from 0.001 µM to 50 µM (n = 2). […] Each of the top 13 analogs had at least an eightfold increase in potency and were not toxic for macrophages at 50 µM in the SAFIRE assay (Fig. 1C).
(§2) As previously described ([18]), RAW 264.7 macrophages (between passages 1 and 6) were grown in complete Dulbecco’s modified Eagle’s medium (DMEM) to approximately 70% to 90% confluence, scraped, washed, resuspended, diluted to 5 × 10^4 in 100 µL, and seeded in black, 96-well, glass-bottomed plates (Brooks Life Sciences catalog number MGB096-1-2-LG-L) at 37°C with 5% CO2. Twenty-four hours later, bacteria grown overnight in LB were diluted into 50 µL phosphate buffered saline (PBS) and added to a final concentration of 1 × 10^7 S. Typhimurium SL1344 (sifB::gfp) per milliliter ([78]) for an approximate multiplicity of infection of 30 bacteria per macrophage cell. Forty-five minutes after bacterial addition, gentamicin (Sigma catalog number G1264) was added to a final concentration of 40 µg/mL to inhibit the growth of remaining extracellular bacteria. Two hours after infection, gentamicin-containing medium was removed and replaced with 200 µL fresh DMEM with compound or DMSO (Sigma catalog number 276855) to the stated final concentrations. At 17.5 h after infection, PBS containing MitoTracker Red CMXRos (Life Technologies catalog number M7512), a vital dye for mitochondrial electric potential, was added to a final concentration of 100 nM. At 18 h after infection, 16% paraformaldehyde was added to a final concentration of 4% and incubated at room temperature for 15 min. Cells were washed twice with PBS and stained for 20 min with 1 µM 4′,6-diamidino-2-phenylindole (DAPI), a vital dye for double-stranded DNA, and stored in 90% glycerol in PBS until imaging. Samples were imaged in six fields of view per well using a semiautomated Yokogawa CellVoyager CV1000 confocal scanner system with a 20×, 0.75-numerical aperture (NA) objective. A MATLAB algorithm calculated bacterial accumulation (GFP fluorescence) within macrophages, as defined by DAPI and MitoTracker Red. GFP^+ macrophage area was defined as the number of GFP-positive pixels per macrophage divided by the total number of pixels per macrophage, averaged across all macrophages in the field ([34]).

RAW 264.7 macrophages = experiment: SAFIRE macrophage assay: host toxicity (adherent macrophage count, morphology); format: cell-based
Excerpt: as §1, §2

SMILES	5 uM Avg Antibacterial Score [1]	25 uM Avg Antibacterial Score [1]	5 uM Avg Cell # Score (RAW 264.7 macrophages)	25 uM Avg Cell # Score (RAW 264.7 macrophages)
OC(COc1ccc(Cl)c(Cl)c1)CN1CCOC2(CCOCC2)C1 (centres unmarked) [CU027]	107	95	58	104
OC(COc1ccc(Cl)c(Cl)c1)CN1CCC(NC2CC2)C1 (centres unmarked) [CU028]	88	41	85	134
OC(COc1ccc(Cl)c(Cl)c1)CN1CCC(N2CCOCC2)C1 (centres unmarked) [CU029]	105	63	75	146
OC(COc1ccc(Cl)c(Cl)c1)CN1CCCC(N2CCOCC2)C1 (centres unmarked) [CU030]	102	45	57	126
CC(C)(C)OC(=O)NC1CCN(CC(O)COc2ccc(Cl)c(Cl)c2)C1 (centres unmarked) [CU031]	102	Toxic	88	140
CC(=O)NC1CCN(CC(O)COc2ccc(Cl)c(Cl)c2)C1 (centres unmarked) [CU033]	106	72	79	110
OC(COc1ccccc1)CN1CCC(Nc2nccc(C(F)(F)F)n2)CC1 (centres unmarked) [CU034]	99	Toxic	86	57
COc1ccc(OCC(O)CN2CCC(Nc3nccc(C(F)(F)F)n3)CC2)cc1 (centres unmarked) [CU036]	102	24	54	120
OC(COc1ccc(F)cc1)CN1CCC(Nc2nccc(C(F)(F)F)n2)CC1 (centres unmarked) [CU037]	106	23	74	117
OC(COc1ccc(Cl)cc1Cl)CN1CCC(Nc2nccc(C(F)(F)F)n2)CC1 (centres unmarked) [CU038]	95	Toxic	85	181
OC(COc1ccc(F)cc1F)CN1CCC(Nc2nccc(C(F)(F)F)n2)CC1 (centres unmarked) [CU039]	107	13	90	145
OC(COc1ccccc1Cl)CN1CCC(Nc2nccc(C(F)(F)F)n2)CC1 (centres unmarked) [CU040]	109	19	84	114
N#Cc1ccc(OCC(O)CN2CCC(Nc3nccc(C(F)(F)F)n3)CC2)cc1 (centres unmarked) [CU041]	106	23	85	78
OC(COc1ccc(Cl)c(Cl)c1)CN1CCC(Nc2ncccn2)CC1 (centres unmarked) [CU042]	105	23	77	90
OC(COc1ccccc1)CN1CCC(Nc2ncccn2)CC1 (centres unmarked) [CU043]	106	81	69	107
OC(COc1ccc(Cl)cc1)CN1CCC(Nc2ncccn2)CC1 (centres unmarked) [CU044]	91	36	84	100
OC(COc1ccc(F)cc1)CN1CCC(Nc2ncccn2)CC1 (centres unmarked) [CU045]	101	99	86	109
COc1ccc(OCC(O)CN2CCC(Nc3ncccn3)CC2)cc1 (centres unmarked) [CU046]	103	75	74	173
OC(COc1ccc(Cl)cc1Cl)CN1CCC(Nc2ncccn2)CC1 (centres unmarked) [CU047]	107	26	72	141

SMILES	5 uM Avg Antibacterial Score [1]	25 uM Avg Antibacterial Score [1]	5 uM Avg Cell # Score (RAW 264.7 macrophages)	25 uM Avg Cell # Score (RAW 264.7 macrophages)
OC(COc1ccc(F)cc1F)CN1CCC(Nc2ncccn2)CC1 (centres unmarked) [CU048]	105	95	85	159
OC(COc1ccccc1Cl)CN1CCC(Nc2ncccn2)CC1 (centres unmarked) [CU049]	104	61	84	121
N#Cc1ccc(OCC(O)CN2CCC(Nc3ncccn3)CC2)cc1 (centres unmarked) [CU050]	101	95	102	113
OC(COc1ccc(Cl)c(Cl)c1)CN1CCC(Nc2nccs2)CC1 (centres unmarked) [CU051]	58	45	123	105
OC(COc1ccccc1)CN1CCC(Nc2nccs2)CC1 (centres unmarked) [CU052]	106	93	110	165
OC(COc1ccc(Cl)cc1)CN1CCC(Nc2nccs2)CC1 (centres unmarked) [CU053]	101	42	127	140
COc1ccc(OCC(O)CN2CCC(Nc3nccs3)CC2)cc1 (centres unmarked) [CU054]	91	74	98	96
OC(COc1ccc(Cl)c(Cl)c1)CN1CCCN(c2nccc(C(F)(F)F)n2)CC1 (centres unmarked) [CU055]	Toxic	Toxic	77	99
CNC(=O)C1CCN(CC(O)COc2ccc(Cl)c(Cl)c2)CC1 (centres unmarked) [CU057]	101	93	85	89
CN(C)C(=O)C1CCN(CC(O)COc2ccc(Cl)c(Cl)c2)CC1 (centres unmarked) [CU058]	104	72	85	81
CCN(CC)C(=O)C1CCN(CC(O)COc2ccc(Cl)c(Cl)c2)CC1 (centres unmarked) [CU059]	97	46	105	88
O=C1CCCN1C1CCN(CC(O)COc2ccc(Cl)c(Cl)c2)CC1 (centres unmarked) [CU060]	98	83	100	99
OC(COc1ccc(Cl)c(Cl)c1)CN1CCN(c2nccc(C(F)(F)F)n2)CC1 (centres unmarked) [CU061]	Toxic	Toxic	74	101
O=C(C1CCN(CC(O)COc2ccc(Cl)c(Cl)c2)CC1)N1CCCC1 (centres unmarked) [CU062]	95	48	103	145
CC(=O)NC1CCN(CC(O)COc2ccc(Cl)c(Cl)c2)CC1 (centres unmarked) [CU063]	102	78	107	119
CC(=O)N(C)C1CCN(CC(O)COc2ccc(Cl)c(Cl)c2)CC1 (centres unmarked) [CU064]	106	90	86	82
NC(=O)C1CCN(CC(O)COc2ccc(Cl)c(Cl)c2)C1 (centres unmarked) [CU065]	106	90	80	87
NC1CN(CC(O)COc2ccc(Cl)c(Cl)c2)C1 (centres unmarked) [CU150]			112 and 118	112 and 143
